Holding throughout (type): cell-based
One experiment relates to MOLM-13 cells. In words: Cell viability assay (CELLTITER-GLO), MOLM-13 cells. The settings on record: Homo sapiens, MOLM-13, 72 h; Table 2; compound at 10 μM, 3 days; read-out: Effect on MOLM-13 cell viability (% DMSO). The method in brief: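 Viability, as % of DMSO control, was read by CellTiter-Glo luminescence after a 3-day compound exposure (single dose of 10 μM or 1 μM) at 37 °C. Cells plated at 4,000/well in RPMI 1640 with 10% FBS. Results reported as categories A <10%, B 10–<25%, C 25–<50%, D ≥50%.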

The subject of the next experiment is H23 cells. In words: Cell viability assay (CELLTITER-GLO), H23 cells. The conditions noted are these: Table 4; 3 days. In outline: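 Luminescent CellTiter-Glo readout after 3-day compound treatment (37° C, 5% CO2) of H23 cells plated at 4,000 cells/well in RPMI 1640 plus 10% FBS, DMSO as control. IC50 values given as categorical ranges.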
The test system of the next experiment is H358 cells. The experiment is described as follows: Cell viability assay (CELLTITER-GLO), H358 cells. The conditions noted are these: Table 4; 3 days. The method in brief:
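Luminescent ATP read-out (CellTiter-Glo) after 3-day incubation at 37 °C of H358 cells plated at 4,000/well in RPMI 1640 with 10% FBS. Values are either IC50 bins (A ≤1 μM through D >10 μM) or % of DMSO viability at 10 μM or 1 μM, bins A <10% through D ≥50%.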

In the case of `CCC(=O)N1CCN(c2ncnc3c(F)c(-c4c(F)cccc4OCCCCCCCN4CCC(c5cc6c(cc5F)C(=O)N(C5CCC(=O)NC5=O)C6)CC4)c(Cl)cc23)CC1` (stereo not drawn) [Compound 93, 3-(5-(1-(7-(2-(6-Chloro-8-fluoro-4-(4-propionylpiperazin-1-yl)quinazolin-7-yl)-3-fluorophenoxy)heptyl)piperidin-4-yl)-6-fluoro-1-oxoisoindolin-2-yl)piperidine-2,6-dione], the viability at 10 µM in the experiment with MOLM-13 cells was below 10%. Also, in the experiment on H23 cells, the “Inhibition of H23 cells, IC50 (class)” value was “B′”. For the same molecule, in the experiment on H358 cells, the “Inhibition of H358 cells, IC50 (class)” value was “B′”.

In the case of `C=CC(=O)N1CCN(c2ncnc3c(F)c(-c4c(F)cccc4OCCCCCCCN4CCC(c5cc6c(cc5F)C(=O)N(C5CCC(=O)NC5=O)C6)CC4)c(Cl)cc23)CC1` (stereo not drawn) [Compound 94, 3-(5-(1-(7-(2-(4-(4-Acryloylpiperazin-1-yl)-6-chloro-8-fluoroquinazolin-7-yl)-3-fluorophenoxy)heptyl)piperidin-4-yl)-6-fluoro-1-oxoisoindolin-2-yl)piperidine-2,6-dione], the viability at 10 µM in the experiment with MOLM-13 cells is below 10%. Also, in the experiment with H23 cells, the “Inhibition of H23 cells, IC50 (class)” value is on record as “B′”. Further, the “Inhibition of H358 cells, IC50 (class)” value in the experiment with H358 cells is reported as “B′”.

For the molecule `CCC(=O)Oc1cccc(F)c1-c1c(Cl)cc2c3c(cnc2c1F)N(CCCCCCCN1CCC(c2cc(F)cc4c2CN(C2CCC(=O)NC2=O)C4=O)CC1)C(=O)[C@H]1CN(C(=O)CC)[C@H](C)CN31` (stereo partly drawn) [Compound 95, 2-((2R,4aR)-11-Chloro-6-(7-(4-(2-(2,6-dioxopiperidin-3-yl)-6-fluoro-1-oxoisoindolin-4-yl)piperidin-1-yl)heptyl)-9-fluoro-2-methyl-5-oxo-3-propionyl-2,3,4,4a,5,6-hexahydro-1H-pyrazino[1′,2′:4,5]pyrazino[2,3-c]quinolin-10-yl)-3-fluorophenyl propionate], in the experiment with MOLM-13 cells, the viability at 10 µM was below 10%. Also, the “Inhibition of H23 cells, IC50 (class)” value with H23 cells is recorded as “B′”. Also, in the experiment with H358 cells, the “Inhibition of H358 cells, IC50 (class)” value is listed as “B′”.

As to `C/C=C(\Cl)C(=O)N1CCN(c2ncnc3c(F)c(-c4c(F)cccc4OCCCCCCCN4CCC(c5cc(F)cc6c5CN(C5CCC(=O)NC5=O)C6=O)CC4)c(Cl)cc23)CC1` (stereo not drawn) [Compound 96, (Z)-3-(4-(1-(7-(2-(6-Chloro-4-(4-(2-chlorobut-2-enoyl)piperazin-1-yl)-8-fluoroquinazolin-7-yl)-3-fluorophenoxy)heptyl)piperidin-4-yl)-6-fluoro-1-oxoisoindolin-2-yl)piperidine-2,6-dione], the viability at 10 µM in the experiment with MOLM-13 cells was below 10%. Also, the “Inhibition of H23 cells, IC50 (class)” value in the experiment with H23 cells was “B′”. Further, in the experiment on H358 cells, the “Inhibition of H358 cells, IC50 (class)” value is “B′”.

Consider `CC(C)/C=C(\Cl)C(=O)N1CCN(c2ncnc3c(F)c(-c4c(F)cccc4OCCCCCCCN4CCC(c5cc(F)cc6c5CN(C5CCC(=O)NC5=O)C6=O)CC4)c(Cl)cc23)CC1` (stereo not drawn) [Compound 97, (Z)-3-(4-(1-(7-(2-(6-Chloro-4-(4-(2-chloro-4-methylpent-2-enoyl)piperazin-1-yl)-8-fluoroquinazolin-7-yl)-3-fluorophenoxy)heptyl)piperidin-4-yl)-6-fluoro-1-oxoisoindolin-2-yl)piperidine-2,6-dione], for which, in the experiment with MOLM-13 cells, the viability at 10 µM was below 10%. The “Inhibition of H23 cells, IC50 (class)” value in the experiment on H23 cells is on record as “B′”. Further, the “Inhibition of H358 cells, IC50 (class)” value in the experiment on H358 cells is on record as “B′”.

As for `CC/C=C(\Cl)C(=O)N1CCN(c2ncnc3c(F)c(-c4c(F)cccc4OCCCCCCCN4CCC(c5cc(F)cc6c5CN(C5CCC(=O)NC5=O)C6=O)CC4)c(Cl)cc23)CC1` (stereo not drawn) [Compound 98, (Z)-3-(4-(1-(7-(2-(6-Chloro-4-(4-(2-chloropent-2-enoyl)piperazin-1-yl)-8-fluoroquinazolin-7-yl)-3-fluorophenoxy)heptyl)piperidin-4-yl)-6-fluoro-1-oxoisoindolin-2-yl)piperidine-2,6-dione], in the experiment on MOLM-13 cells, the viability at 10 µM was in the range of 25 to 50%. Moreover, the “Inhibition of H23 cells, IC50 (class)” value in the experiment on H23 cells is given as “B′”. For the same molecule, the “Inhibition of H358 cells, IC50 (class)” value with H358 cells was “B′”.

Take `CC(=O)N1CCN(c2ncnc3c(F)c(-c4c(F)cccc4OCCCCCCCN4CCC(c5cc(F)cc6c5CN(C5CCC(=O)NC5=O)C6=O)CC4)c(Cl)cc23)CC1` (stereo not drawn) [Compound 99, 3-(4-(1-(7-(2-(4-(4-Acetylpiperazin-1-yl)-6-chloro-8-fluoroquinazolin-7-yl)-3-fluorophenoxy)heptyl)piperidin-4-yl)-6-fluoro-1-oxoisoindolin-2-yl)piperidine-2,6-dione]: the viability at 10 µM with MOLM-13 cells is below 10%. Moreover, in the experiment with H23 cells, the “Inhibition of H23 cells, IC50 (class)” value is “B′”. In the experiment with H358 cells, the “Inhibition of H358 cells, IC50 (class)” value is on record as “B′”.

On to `C=C(Cl)C(=O)N1CCN(c2nc(=O)n(-c3ccccc3C(C)C)c3nc(-c4c(F)cccc4OCCCCCCCN4CCC(c5cc(F)cc6c5CN(C5CCC(=O)NC5=O)C6=O)CC4)c(F)cc23)[C@@H](C)C1` (stereo partly drawn) [Compound 100, 3-(4-(1-(7-(2-(4-((S)-4-(2-Chloroacryloyl)-2-methylpiperazin-1-yl)-6-fluoro-1-(2-isopropylphenyl)-2-oxo-1,2-dihydropyrido[2,3-d]pyrimidin-7-yl)-3-fluorophenoxy)heptyl)piperidin-4-yl)-6-fluoro-1-oxoisoindolin-2-yl)piperidine-2,6-dione], for which the viability at 10 µM in the experiment on MOLM-13 cells is below 10%. Also, the “Inhibition of H23 cells, IC50 (class)” value with H23 cells was “A′”. In addition, the “Inhibition of H358 cells, IC50 (class)” value with H358 cells was “A′”.

`C=C(Cl)C(=O)N1CCN(c2ncnc3c(F)c(-c4c(F)cccc4OCCOCc4ccc(COCCN5CCC(c6cc(F)cc7c6CN(C6CCC(=O)NC6=O)C7=O)CC5)cc4)c(Cl)cc23)CC1` (stereo not drawn) [Compound 101, 3-(4-(1-(2-((4-((2-(2-(6-Chloro-4-(4-(2-chloroacryloyl)piperazin-1-yl)-8-fluoroquinazolin-7-yl)-3-fluorophenoxy)ethoxy)methyl)benzyl)oxy)ethyl)piperidin-4-yl)-6-fluoro-1-oxoisoindolin-2-yl)piperidine-2,6-dione]: the viability at 10 µM in the experiment on MOLM-13 cells was below 10%. In addition, the “Inhibition of H23 cells, IC50 (class)” value in the experiment on H23 cells is recorded as “A′”. The “Inhibition of H358 cells, IC50 (class)” value in the experiment on H358 cells is reported as “A′”.

On to `C=C(Cl)C(=O)N1CCN(c2ncnc3c(F)c(-c4c(F)cccc4OCCCCCCCN4CCC(c5cc(F)cc6c5CN(C5CCC(=O)NC5=O)C6=O)CC4)c(Cl)cc23)C[C@H]1CC#N` (stereo partly drawn) [Compound 102, 2-((2R)-4-(6-Chloro-7-(2-((7-(4-(2-(2,6-dioxopiperidin-3-yl)-6-fluoro-1-oxoisoindolin-4-yl)piperidin-1-yl)heptyl)oxy)-6-fluorophenyl)-8-fluoroquinazolin-4-yl)-1-(2-chloroacryloyl)-piperazin-2-yl)acetonitrile], for which the viability at 10 µM in the experiment with MOLM-13 cells is below 10%. Besides, the “Inhibition of H23 cells, IC50 (class)” value with H23 cells is listed as “A′”. The “Inhibition of H358 cells, IC50 (class)” value in the experiment on H358 cells is “A′”.

As to `C=C(Cl)C(=O)N1CCN(c2ncnc3c(F)c(-c4c(F)cccc4OCCCCCN4CCC(c5cc(F)cc6c5CN(C5CCC(=O)NC5=O)C6=O)CC4)c(Cl)cc23)CC1` (stereo not drawn) [Compound 103, 3-(4-(1-(5-(2-(6-Chloro-4-(4-(2-chloroacryloyl)piperazin-1-yl)-8-fluoroquinazolin-7-yl)-3-fluorophenoxy)pentyl)piperidin-4-yl)-6-fluoro-1-oxoisoindolin-2-yl)piperidine-2,6-dione], the viability at 10 µM in the experiment on MOLM-13 cells is below 10%. The “Inhibition of H23 cells, IC50 (class)” value in the experiment with H23 cells is listed as “A′”. Further, the “Inhibition of H358 cells, IC50 (class)” value in the experiment on H358 cells is given as “A′”.

`C=C(Cl)C(=O)N1C[C@@H]2C(=O)N(C)c3cnc4c(F)c(-c5c(F)cccc5OCCCCCCCN5CCC(c6cc(F)cc7c6CN(C6CCC(=O)NC6=O)C7=O)CC5)c(Cl)cc4c3N2C[C@H]1C` (stereo partly drawn) [Compound 104, 3-(4-(1-(7-(2-((2R,4aR)-11-Chloro-3-(2-chloroacryloyl)-9-fluoro-2,6-dimethyl-5-oxo-2,3,4,4a,5,6-hexahydro-1H-pyrazino[1′,2′:4,5]pyrazino[2,3-c]quinolin-10-yl)-3-fluorophenoxy)-heptyl)piperidin-4-yl)-6-fluoro-1-oxoisoindolin-2-yl)piperidine-2,6-dione]: in the experiment on MOLM-13 cells, the viability at 10 µM is below 10%. Also, the “Inhibition of H23 cells, IC50 (class)” value in the experiment with H23 cells was “B′”. For the same molecule, in the experiment with H358 cells, the “Inhibition of H358 cells, IC50 (class)” value is recorded as “B′”.

Consider `C=C(Cl)C(=O)N1CCN(c2ncnc3cc(-c4c(F)cccc4OCCCCCCCN4CCC(c5cccc6c5CN(C5CCC(=O)NC5=O)C6=O)CC4)c(Cl)cc23)CC1` (stereo not drawn) [Compound 105, 3-(4-(1-(7-(2-(6-Chloro-4-(4-(2-chloroacryloyl)piperazin-1-yl)quinazolin-7-yl)-3-fluorophenoxy)heptyl)piperidin-4-yl)-1-oxoisoindolin-2-yl)piperidine-2,6-dione], for which the viability at 10 µM with MOLM-13 cells is below 10%. The “Inhibition of H23 cells, IC50 (class)” value in the experiment with H23 cells is given as “A′”. In the experiment with H358 cells, the “Inhibition of H358 cells, IC50 (class)” value is given as “A′”.

Turning to `C=C(Cl)C(=O)N1CCN(c2ncnc3c(F)c(-c4c(F)cccc4OCCCCCCCN4CCC(c5cc6c(cc5F)C(=O)N(C5CCC(=O)NC5=O)C6)CC4)c(Cl)cc23)CC1` (stereo not drawn) [Compound 107, 3-(5-(1-(7-(2-(6-Chloro-4-(4-(2-chloroacryloyl)piperazin-1-yl)-8-fluoroquinazolin-7-yl)-3-fluorophenoxy)heptyl)piperidin-4-yl)-6-fluoro-1-oxoisoindolin-2-yl)piperidine-2,6-dione], in the experiment on MOLM-13 cells, the viability at 10 µM was below 10%. The “Inhibition of H23 cells, IC50 (class)” value in the experiment on H23 cells is “A′”. In the experiment on H358 cells, the “Inhibition of H358 cells, IC50 (class)” value was “A′”.

The values above are taken from patent US12630547B2, “RAS protein degraders, pharmaceutical compositions thereof, and their therapeutic applications” (BioTheryX, Inc., priority 2019, dated 2026).
